We go through 71 molecules from ChEMBL document CHEMBL1154198, “Chemical genetics of Plasmodium falciparum” (Nature, 2010).

Assay [1] concerns Plasmodium falciparum. Put plainly: ST_JUDE: Plasmodium falciparum 3D7 EC50 (uM) as measured by SYBR green dye. The assay is classed as functional, organism-based.
The subject of assay [2] is Plasmodium falciparum. The experiment in a line: ST_JUDE: Plasmodium falciparum K1 EC50 (uM) as measured by SYBR green dye. It is filed as functional, organism-based.

Some results are limits rather than exact numbers.

By EC50 is commonly meant the midpoint of the concentration-response curve. Low values mean higher potency in that assay, high ones lower potency in that assay. Regarding `O=C(Nc1ccc(Cl)cc1)Nc1cc(Cl)cc(Cl)c1`, the EC50 in assay [1] came out at 3.21 µM; in assay [2] it was 1.63 µM.

As to `CCc1ccc(S(=O)(=O)/N=C2/C=C(Sc3nc[nH]n3)C(=O)c3ccccc32)cc1`, the EC50 in assay [1] was found to be 4.79 µM; in assay [2] it was 6.99 µM.

For the molecule `Cc1ccc(OCCCOc2cccc3ccc(C)nc23)c([N+](=O)[O-])c1`, the EC50 in assay [1] and in assay [2] was over 15 µM each time.

Consider `Cc1ccc(-n2cc(CN3CCCC(C(N)=O)C3)c(-c3cccc(C)c3)n2)cc1` (configuration not stated), for which the EC50 came to 5.24 µM in assay [1] and 4.22 µM in assay [2].

As for `COc1ccccc1/C=C/CN1CCC2(CCC(CNC(=O)C3CCOCC3)O2)CC1` (configuration not stated), the EC50 in assay [1] and in assay [2] was over 15 µM throughout.

Take `CCOC(=O)c1cnc2ccc(OCC)cc2c1NCCCN1CCOCC1`: the EC50 is 1.08 µM in assay [1] and 2.36 µM in assay [2].

Turning to `COc1cc(CNCCc2ccc(Cl)cc2)cc(OC)c1O`, the results for the EC50 in assay [1] and in assay [2] were 6.89 µM and over 15 µM, respectively.

On to `COC(=O)c1sc2ccccc2c1NC(=O)c1cccc(Br)c1`, for which the EC50 in assay [1] and in assay [2] was over 15 µM in each case.

Consider `CCOCCCn1c(=N)c(C(=O)NCc2cccnc2)cc2c(=O)n3cccc(C)c3nc21`, for which the EC50 in assay [1] and in assay [2] was over 15 µM throughout.

Turning to `COc1ccc2nc(C)cc(Nc3ccc(Cl)c(Cl)c3)c2c1`, the EC50 in assay [1] worked out at 1.14 µM; in assay [2], 4.84 µM.

As for `COc1ccc2c(c1)CN(Cc1ccc(F)cc1)CO2`, the EC50 in assay [1] was determined as 2.13 µM; in assay [2], 0.372 µM.

As to `OCCC1CN(Cc2c(F)cccc2F)CCN1Cc1ccc(F)cc1` (configuration not stated), the EC50 in assay [1] and in assay [2] was over 15 µM throughout.

Consider `COc1ccc(C)c2sc(N(Cc3cccnc3)C(=O)c3ccc(C#N)cc3)nc12`, for which the EC50 in assay [1] and in assay [2] was over 15 µM in each case.

Take `O=[N+]([O-])c1ccc2ncnc(Nc3cc(Cl)ccc3O)c2c1`: the EC50 turned out to be 1.62 µM in assay [1] and 1.75 µM in assay [2].

Turning to `Cc1nc2sc(C(c3ccc(Cl)c(Cl)c3)N3CCN(C)CC3)c(O)n2n1` (configuration not stated), the concentration for a half-maximal effect (EC50) in assay [1] and in assay [2] was over 15 µM each time.

Take `CCc1ccc(C(Nc2ccccn2)c2ccc3cccnc3c2O)cc1` (configuration not stated): the EC50 is 2.31 µM in assay [1] and 2.72 µM in assay [2].

As for `CCOC(=O)c1c(CN(C)C)n(-c2ccccc2)c2cc(Br)c(O)cc12`, the figures for the EC50 in assay [1] and in assay [2] were 4.14 µM and over 15 µM, respectively.

As to `O=C1C(Sc2nc[nH]n2)=C/C(=N/S(=O)(=O)c2ccc(F)cc2)c2ccccc21`, the EC50 in assay [1] is over 15 µM; in assay [2], 11.9 µM.

Take `Cc1ccccc1C(=O)N(Cc1cccnc1)c1nc2c(F)cccc2s1`: the concentration giving a half-maximal response (EC50) in assay [1] is 4.67 µM; in assay [2] it was over 15 µM.

With `COc1ccc(Br)cc1C(Nc1ccccn1)c1cc(Cl)c2cccnc2c1O` (configuration not stated), the EC50 is over 15 µM in assay [1] and 2.95 µM in assay [2].

For `Cc1ccc(Nc2cc(C)nc(Nc3ccc(NS(=O)(=O)c4cccc(Cl)c4)cc3)n2)cc1`, the EC50 in assay [1] was 1.46 µM; in assay [2] it was over 15 µM.

For the molecule `Cc1c(Cl)c(C(F)(F)F)nn1CC(=O)Nc1cccc(C(F)(F)F)c1`, the EC50 in assay [1] is over 15 µM; in assay [2], 4.43 µM.

With `COC(=O)c1ccc(Nc2nc(NCc3ccco3)c3ccccc3n2)cc1`, the figures for the EC50 in assay [1] and in assay [2] were 4.89 µM and 8.54 µM, respectively.

`CCOC(=O)c1ccc(NC2=C(N3CCCCC3)C(=O)c3ccccc3C2=O)cc1`: the EC50 in assay [1] came out at 0.0422 µM; in assay [2] it was 0.111 µM.

Turning to `CCN(CC)CCNC(=O)CCc1nnc2n(Cc3ccc(Cl)cc3)c(=O)c3ccccc3n12`, the EC50 in assay [1] and in assay [2] was over 15 µM throughout.

Consider `CCOc1ccc(NC(=O)C2c3ccccc3C(=O)N(C3CCCC3)C2c2cccs2)cc1` (configuration not stated), for which the results for the EC50 in assay [1] and in assay [2] were 2.95 µM and 3.88 µM, respectively.

Consider `COC(=O)c1ccc(NC(=O)CSc2ccc3nnc(-c4ccc(C)cc4)n3n2)cc1`, for which the EC50 in assay [1] and in assay [2] was over 15 µM throughout.

As for `COc1ccc(Cl)cc1N(C)C(=O)c1cc2c(s1)-c1ccccc1S(=O)(=O)C2`, the EC50 in assay [1] came to 1.35 µM; in assay [2], 1.78 µM.

As to `Cc1cccc(/C=C2/Sc3ccc(C(=O)NCCN4CCN(c5cc(Cl)ccc5C)CC4)cc3N(C)C2=O)c1`, the figures for the EC50 in assay [1] and in assay [2] were 0.985 µM and 0.965 µM, respectively.

In the case of `COc1ccc(C(C)(C)C)cc1S(=O)(=O)Nc1ccc(Nc2nc(C)cc(N(C)C)n2)cc1`, the EC50 in assay [1] amounted to 0.741 µM; in assay [2], 1.32 µM.

For the molecule `COC(=O)c1c(S(=O)(=O)N2CCCC2)sc2c1CCN(CCC(C)c1ccccc1)C2` (configuration not stated), the EC50 in assay [1] was determined as 4.39 µM; in assay [2], 4.78 µM.

In the case of `CCOC(=O)N1CCN(C(=O)Nc2cc(C(F)(F)F)cc(C(F)(F)F)c2)CC1`, the EC50 in assay [1] is 2.05 µM; in assay [2], over 15 µM.

In the case of `Oc1cccc2ccc(/C=C/c3ccccc3Br)nc12`, the EC50 in assay [1] is over 15 µM; in assay [2] it was 9.71 µM.

On to `CN(C)c1cc[n+](CC(=O)c2ccc(Cl)cc2)cc1`, for which the EC50 in assay [1] turned out to be 2.44 µM; in assay [2], 1.74 µM.

Regarding `CCO/C(O)=C1\C(C)=NC2=C(C(=O)CC(c3ccccc3)C2)C1c1ccc(Cl)cc1` (configuration not stated), the EC50 in assay [1] is 3.85 µM; in assay [2], 6.69 µM.

`Cc1cccc(C)c1OCC(=O)N(Cc1ccc(C(C)C)cc1)Cc1ccco1`: the EC50 is 4.79 µM in assay [1] and over 15 µM in assay [2].

As for `Cc1ccc(Nc2nc(NCc3ccccc3)c3ccccc3n2)cc1`, the EC50 came to 0.754 µM in assay [1] and 3.6 µM in assay [2].

Consider `CS(=O)(=O)N(Cc1ccccc1)c1ccccc1C(=O)Nc1cc(Cl)ccc1Cl`, for which the EC50 in assay [1] was found to be 6.12 µM; in assay [2], 4.58 µM.

As to `Cc1ccnc(NC(c2ccc(Cl)cc2Cl)c2ccc3cccnc3c2O)c1` (configuration not stated), the EC50 was 1.56 µM in assay [1] and 1.44 µM in assay [2].

As for `CCOc1ccc(-c2nonc2NC(=O)c2ccccc2Cl)cc1OCC`, the EC50 was determined as 0.49 µM in assay [1] and 0.538 µM in assay [2].

For `CC(=O)NC1=C(Cl)C(=O)c2ccccc2C1=O`, the results for the EC50 in assay [1] and in assay [2] were 4.04 µM and 2.21 µM, respectively.

For the molecule `COC(=O)c1c(N)n(-c2ccc(F)cc2F)c2nc3ccccc3nc12`, the EC50 was found to be 0.853 µM in assay [1] and 3.98 µM in assay [2].

Turning to `COc1ccc(-c2nnc3c4ccccc4c(C)nn23)cc1S(=O)(=O)N1CCCCC1`, the EC50 in assay [1] and in assay [2] was over 15 µM throughout.

On to `CC(=O)Nc1ccc(S(=O)(=O)N2CCN(c3ccc(Nc4ccccc4)nn3)CC2)cc1`, for which the EC50 in assay [1] is 7.32 µM; in assay [2], over 15 µM.

As to `Cc1ccc(/C=C2\Oc3c(ccc(O)c3CN3CCCCC3)C2=O)cc1`, the EC50 in assay [1] came out at 2.89 µM; in assay [2], 0.28 µM.

For the molecule `O=C(Nc1cccc(Cl)c1)Nc1ccccc1OC(F)(F)C(F)F`, the EC50 in assay [1] was found to be 3.06 µM; in assay [2], 1.32 µM.

As for `CCCCCC(O)(c1ccccc1)C(CN1CCOCC1)c1ccccc1` (configuration not stated), the EC50 in assay [1] is 3.26 µM; in assay [2] it was 2.04 µM.

Turning to `C=CC[n+]1c(C=C2C=CC=CN2C)sc2ccccc21`, the results for the EC50 in assay [1] and in assay [2] were 1.52 µM and 0.879 µM, respectively.

With `Cc1ccn2c(Nc3ccccc3)c(-c3ccccn3)nc2c1`, the EC50 in assay [1] and in assay [2] was over 15 µM throughout.

On to `Cc1ccnc(NC(c2ccccc2F)c2ccc3cccnc3c2O)c1` (configuration not stated), for which the EC50 is 1.86 µM in assay [1] and 1.5 µM in assay [2].

Turning to `CCOC(=O)c1ccc(NC(=O)C2CCC(C(C)(C)C)CC2)cc1` (configuration not stated), the EC50 in assay [1] and in assay [2] was over 15 µM throughout.

In the case of `O=C1/C(=C/c2ccc(F)cc2)Oc2c1ccc(O)c2CN1CCCCC1`, the EC50 in assay [1] turned out to be 2.03 µM; in assay [2], 0.469 µM.

For `O=C(Nc1ccc(Cl)c(Cl)c1)Nc1ccc(Cl)c([N+](=O)[O-])c1`, the 50% effective concentration (EC50) in assay [1] and in assay [2] was over 15 µM each time.

Take `CN(C)CCNCCCOc1ccc(Cl)cc1Cc1ccccc1`: the results for the EC50 in assay [1] and in assay [2] were 5.82 µM and over 15 µM, respectively.

As to `OCCNc1nc(Nc2ccc(Br)cc2)nc2ccccc12`, the values for the EC50 in assay [1] and in assay [2] were 0.829 µM and 1.7 µM, respectively.

Consider `O=C(c1cccc(C(F)(F)F)c1)N1CCN(c2ccc(N3CCCCCC3)nn2)CC1`, for which the EC50 in assay [1] and in assay [2] was over 15 µM in each case.

`COc1ccc(Cl)c2sc(N(Cc3cccnc3)C(=O)c3ccc(S(C)(=O)=O)cc3)nc12`: the EC50 in assay [1] and in assay [2] was over 15 µM throughout.

Regarding `CN(C)c1ccc(-c2n(C)c3ccccc3[n+]2C)cc1`, the values for the EC50 in assay [1] and in assay [2] were over 15 µM and 4.36 µM, respectively.

Take `Cc1cccc(-n2ccnc2SCC(=O)Nc2cccc(C(F)(F)F)c2)c1C`: the EC50 was 0.836 µM in assay [1] and 1.81 µM in assay [2].

Take `Cc1cc(O)nc(-n2nc(C)cc2NC(=O)c2cc(C(F)(F)F)cc(C(F)(F)F)c2)n1`: the EC50 in assay [1] and in assay [2] was over 15 µM each time.

For `COc1ccccc1C1CC(c2ccccc2)=NN1C(=O)c1ccccc1` (configuration not stated), the results for the EC50 in assay [1] and in assay [2] were 0.855 µM and 4.32 µM, respectively.

As to `C[n+]1ccccc1/C=C1\Sc2ccccc2N1CCC(=O)O`, the EC50 in assay [1] was 7.63 µM; in assay [2], 3.01 µM.

Consider `CCOc1cc(C2Nc3cccc4cccc(c34)N2)ccc1O`, for which the EC50 in assay [1] and in assay [2] was over 15 µM each time.

On to `COc1[nH]cnc2c3cc(C)ccc3nc1-2`, for which the EC50 in assay [1] and in assay [2] was over 15 µM in each case.

Turning to `CCc1ccc(C(O)(CCC(C)C)C(CN2CCOCC2)c2ccccc2)cc1` (configuration not stated), the results for the EC50 in assay [1] and in assay [2] were 2.45 µM and 1.99 µM, respectively.

For the molecule `Cc1nc2ccc(OCC(C)C)cc2c(O)c1CN(C)C1CCN(C)CC1`, the EC50 in assay [1] and in assay [2] was over 15 µM throughout.

As for `CCOC(=O)c1cnc2ccc(OC)cc2c1NCCCN1CCOCC1`, the EC50 in assay [1] was 5.94 µM; in assay [2], 4.38 µM.

Take `O=C1C(NC2CCCCC2)=C(N2CCCCC2)C(=O)c2ccccc21`: the 50% effective concentration (EC50) was 0.0191 µM in assay [1] and 0.0247 µM in assay [2].

Take `CCc1c(C)nc(-n2nc(C)cc2NC(=O)c2ccccc2I)nc1O`: the EC50 in assay [1] and in assay [2] was over 15 µM each time.

Turning to `CCN1CCN(CCCNC(=O)c2ccc3c(c2)sc2nc(-c4ccc(C)cc4)cn23)CC1`, the EC50 in assay [1] worked out at 1.14 µM; in assay [2], 1.89 µM.

For `CCc1ccccc1NC(=O)C1c2ccccc2C(=O)N(C2CCCC2)C1c1cccs1` (configuration not stated), the EC50 in assay [1] turned out to be 1.73 µM; in assay [2] it was 3.38 µM.
